The text below walks through data of patent publication US20150309042A1, “FLUOROGENIC DENDRIMER REPORTERS AND RELATED METHODS OF USE” (The Regents of the University of Michigan, priority 2013, published 2015).

Data set [1] can be described thus: 'click-on' reaction with a representative alkyne-derivatized molecule, fluorescence emission measurement. Type of data set: physicochemical. To be noted: azidocoumarin free vs. attached to the dendrimer. How it is done:
The fluorogenic properties of the small molecule and dendrimer coumarin reporters were first evaluated by performing the ‘click’ reaction with a representative alkyne-derivatized molecule, 3-(4-(prop-2-yn-1-yloxy)phenyl)propionic acid at room temperature for 12 hours (Scheme 2). […] However, after attaching to the dendrimer, the absorbance of azidocoumarin has red-shifted 20 nm (λmax Ex 340 vs. 360 nm). Following ligation with the alkyne-derivatized molecule, the G5-Coumarin 3 increased its fluorescence 21-fold (FIG. 1). […] This difference in fluorescent enhancement was primarily attributable to the decrease in the background fluorescence intensity of azidocoumarin on the dendrimer reporter. The structure-property relationships are still under investigation.
Experimental Procedure of “Click-on and Probe” Reaction G5-coumarin 3 was dissolved in Cu(II) sulfate (10 mol % per COUlnarin, 1 mg/mL H20 solution) solution. 3-(4-(prop-2-yn-1-yloxy)phenyl)propanoic acid (5 per coumarin, 5 mg/mL DMSO solution) were added. The reaction mixture was incubated at room temperature for 12 h before diluted in H2O for fluorescent emission measurement. […] The excitation and emission spectra were recorded after dilution using H2O.

Data set [2] concerns KB cells. Briefly: detection of EdU incorporated into newly synthesized DNA of KB cells by 'click' ligation and flow cytometry. It counts as cell-based. From the text: The efficacy of the fluorogenic reporters in monitoring metabolite flux in a typical cell culture system was next evaluated. 5-ethynyl-2′-deoxyuridine (EdU), a nucleoside analogue, incorporation into newly synthesized DNA (Scheme 2), a common molecular biology technique to profile cellular proliferation, was monitored (see, e.g., Hahn, C. G.; Han, L. Y.; Rawson, N. E.; Mirza, N.; Borgmann-Winter, K.; Lenox, R. H.; Arnold, S. E. J Comp Neurol 2005, 483, 154; Salic, A.; Mitchison, T. J. P Natl Acad Sci USA 2008, 105, 2415; Limsirichaikul, S.; Niimi, A.; Fawcett, H.; Lehmann, A.; Yamashita, S.; Ogi, T. Nucleic Acids Res 2009, 37; Yamakoshi, H.; Dodo, K.; Okada, M.; Ando, J.; Palonpon, A.; Fujita, K.; Kawata, S.; Sodeoka, M. J Am Chem Soc 2011, 133, 6102). Traditionally, 5-bromo-2′-deoxyuridine (BrdU), an antibody-specific nucleoside analogue, has been used to monitor DNA synthesis but is limited by the complicated processing and signal variability (see, e.g., Declercq, E.; Descamps, J.; Balzarini, J.; Giziewicz, J.; Barr, P. J.; Robins, M. J. J Med Chem 1983, 26, 661). EdU is a DNA base modified with a terminal alkyne group replacing the methyl group in the 5 position and is readily incorporated into newly synthesized DNA during cell proliferation. […] To compare the detection efficacy of the different fluorogenic reporters, the DNA-incorporated EdU molecules were ligated with either the small molecule 3-azido-7-hydroxy coumarin or the dendrimer-coumarin reporters (G5-Coumarin 3) using ‘click’ reactions and then analyzed by flow cytometry. […] Similar to other ‘click’ reaction detection methods with traditional azide fluorescent reporters, detection of EdU incorporation into DNA with the fluorogenic dendrimer reporters retain the accuracy of the traditional assays but reduces background fluorescence greatly improving assay throughput.
EdU Labeling and Staining of Cultured Cells. […] Fluorescence signal intensities from the samples were measured using an Accuri C6 Flow Cytometer (Ann Arbor, Mich.) and data were analyzed using FlowJo 8.7 software (TreeStar).

In the case of `[N-]=[N+]=Nc1cc2ccc(O)cc2oc1=O` [3-azido-7-hydroxy coumarin], in data set [1], the “λmax Ex” value was determined as 340 nm. The “fluorescence intensity after standard wash steps” value in data set [2] (KB cells with EdU, after standard wash steps) is “decreased”. Further, the “cell positive rate before wash steps” value in data set [2] (KB cells with EdU, no washes) is reported as “much higher degree of cell positive rate”. Moreover, the “fluorescent intensity after ligation with DNA-incorporated EdU” value in data set [2] (KB cells, 10 μM EdU for 5 hours, reporters at 10 nM and 100 nM) is on record as “increases in fluorescent intensity”.
